# Test results: patent publication US7638553B2, “Hydroxamates, their manufacture and use as pharmaceutical agents” (Hoffmann-La Roche Inc., priority 2004, dated 2009)
# Assays:
# HT-29 cells = assay: MTT assay on HT-29 human colon carcinoma cell line; type: cell-based; settings: MTT assay after 5 days, read-out: IC90 HT29
# Procedure: To show the activity of the compounds according to this invention, their effects on a human colon carcinoma cell line was evaluated using a standard MTT-assay. MTT (3-(4,5-dimethylthiazol-2-yl)-2,5-diphenyl tetrazolium bromide) is widely used for the quantitative determination of cytotoxic effects or in vitro chemosensitivity of tumor cells. The assay is based on the cleavage of the yellow tetrazolium salt (MTT) to purple formazan crystals by metabolic active cells. For details, see Rubinstein, L. V., et al., J. Natl. Cancer Inst. 82 (1990) 1113-1118.
# We proceeded as follows: HT-29 cells (human colon carcinoma cell line, ATCC-No. HTB-38) were cultivated in RPMI 1640 medium with GlutaMAX™ I (Invitrogen, Cat-No. 61870-010), 2.5% fetal calf serum (FCS, Sigma Cat-No. F4135 (FBS)), 2 mM glutamine, 100 units/ml penicillin, 100 μg/ml streptomycin (=Pen/Strep from Invitrogen Cat. No. 15140). For the assay the cells were seeded in 384 well plates, 900 cells per well, in the same medium. At the next day, the compounds (dissolved 10 mM in DMSO) were added in various concentrations ranging from 30 μM to 1.5 nM. After 5 days, the MTT assay was done mainly according to the instructions of the manufacturer (Cell proliferation kit I, MTT, from Roche Molecular Biochemicals). In brief: MTT labeling reagent was added to a final concentration of 0.5 mg/ml, added and incubated for 4 hrs at 37° C., 5% CO2. During this incubation time purple formazan crystals are formed. After addition of the solubilization solution (20% Sodium Dodecyl Sulfate (SDS) in 0.02 M HCl) the plates were incubated overnight at 37° C., 5% CO2. After careful mixing, the plates were measured in Victor 2 (scanning multiwell spectrophotometer, Wallac) at 550 nm.
# A decrease in number of living cells results in a decrease in the total metabolic activity in the sample. The decrease directly correlates to the amount of purple colour resulting from the solubilization of the purple formazan crystals. Determination of IC90 was done using XL-fit (XLfit software (ID Business Solution Ltd., Guilford, Surrey, UK)).
# recombinant HDAC-1 = biological target: T1, recombinant HDAC-1 (Homo sapiens, UniProt Q13547); assay: HDAC biochemical quench assay; settings: recombinant HDAC-1 purified from HEK 293 cells; 1 μM peptide substrate, 90 min at room temperature
# T1 construct: made in house; host or cells: HEK 293 cells (ATCC-No. CRL 1573)
# Excerpt: The function of histone deacetylase (HDAC) is the deacetylation of lysines in e.g. histone H4. A peptide of 17 amino acids derived from histone H4 was labeled with tetramethylrhodamine (TAMRA, fluorophore, Invitrogen) at the C-terminus and QSY-7™ (quencher dye, Invitrogen) at the N-terminus and was used as a substrate (TAMRA—first 17 aa of histone H4—QSY7). Following deacetylation by HDAC, the enzyme Lys C is able to cleave the peptide after lysine. […] Inhibition of HDAC by compounds results in low signals because Lys C could not cleave the substrate and the quench effect persists.
# For dose response curves, 10 concentrations were diluted 1:3 starting at 30 μM. 10 μl compound dilution were put into each well of a 384 well plate. 10 μl HDAC were added (recombinant HDAC-1 purified from HEK 293 cells (human embryonic kidney cell line transformed by Adenovirus 5 fragments, ATCC-No. CRL 1573); enzyme activity has to be assessed for each preparation). 10 μl peptide substrate was added (1 μM final concentration, derived from 1 mM stock solution diluted 1:1000 in test buffer). After 90 min incubation at room temperature, the reaction was stopped by addition of 20 μl test buffer including 3 μg/ml Lys C and 0.075% Sodium Dodecyl Sulfate (SDS). After overnight incubation the fluorescence signal of TAMRA was measured (Victor 2 from Wallac, absorption 544 nm, emission 590 nm). […]
# T1 sequence (Q13547 whole entry, species assumed): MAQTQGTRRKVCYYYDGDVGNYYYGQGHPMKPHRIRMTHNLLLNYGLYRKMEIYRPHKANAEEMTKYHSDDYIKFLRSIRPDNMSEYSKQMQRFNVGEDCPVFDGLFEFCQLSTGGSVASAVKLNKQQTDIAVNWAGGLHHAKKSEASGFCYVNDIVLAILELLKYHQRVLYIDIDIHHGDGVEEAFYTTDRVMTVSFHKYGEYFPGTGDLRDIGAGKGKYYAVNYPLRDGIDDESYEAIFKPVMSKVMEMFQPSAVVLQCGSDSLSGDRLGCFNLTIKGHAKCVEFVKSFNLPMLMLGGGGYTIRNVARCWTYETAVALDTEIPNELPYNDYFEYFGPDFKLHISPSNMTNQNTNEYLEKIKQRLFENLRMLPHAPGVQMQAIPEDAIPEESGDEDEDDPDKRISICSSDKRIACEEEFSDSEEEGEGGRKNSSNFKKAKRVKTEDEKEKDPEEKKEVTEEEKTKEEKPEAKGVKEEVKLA
IC90 (HT-29 cells),IC50 (recombinant HDAC-1),SMILES
–,2.26 nM,"CSc1ccc(C(C)NC(=O)c2ccc(C(=O)NO)s2)cc1 (centres unmarked) [Example 2-3, Thiophene-2,5-dicarboxylic acid 2-hydroxyamide 5-{[1-(4-methylsulfanyl-phenyl)-ethyl]-amide}]"
220 nM,–,"CC(NC(=O)c1ccc(C(=O)NO)s1)c1cccc(OC(F)(F)F)c1 (centres unmarked) [Example 3, Thiophene-2,5-dicarboxylic acid 2-hydroxyamide 5-{[1-(3-trifluoromethoxy-phenyl)-ethyl]-amide}]"
–,3.11 nM,"CC(NC(=O)c1ccc(C(=O)NO)s1)c1ccc(OC(F)(F)F)cc1 (centres unmarked) [Example 2-1, Thiophene-2,5-dicarboxylic acid 2-hydroxyamide 5-{[1-(4-trifluoromethoxy-phenyl)-ethyl]-amide}]"
210 nM,–,"CC(NC(=O)c1ccc(C(=O)NO)s1)c1cccc(SC(F)(F)F)c1 (centres unmarked) [Example 2-2, Thiophene-2,5-dicarboxylic acid 2-hydroxyamide 5-{[1-(3-trifluoromethylsulfanyl-phenyl)-ethyl]-amide}]"

SMILES,IC90 (HT-29 cells),IC50 (recombinant HDAC-1)
"CC(NC(=O)c1ccc(C(=O)NO)s1)c1ccc(SC(F)(F)F)cc1 (centres unmarked) [Example 1, Thiophene-2,5-dicarboxylic acid 2-hydroxyamide 5-{[1-(4-trifluoromethylsulfanyl-phenyl)-ethyl]-amide}]",340 nM,–
